Measured values published in patent US12274725B2, “Zika virus strains for treatment of glioma” (priority 2017, dated 2025).

How the values were obtained:
GSC lines (387 and 3565) = assay: Temozolomide cytotoxicity assay; assay type: cell-based, human; settings: 7 days
Method: Two GSC lines (387 and 3565) were treated with indicated concentrations of temozolomide for 7 days. Relative cell number was assayed by CellTiter-Glo on day 7 and normalized to PBS control.
GSCs were plated at 1,000 cells/well in 96-well tissue culture treated plates (TPP) and allowed to attach overnight. For viral infection and growth inhibition assays, wild-type ZIKV-Dakar, ZIKV-Brazil, or mouse adapted ZIKV-Dakar were used at an MOI of 5. For combined drug+virus therapy experiments, wild-type parental ZIKV-Cambodia and its derivative ZIKV-E218A were used for infection. Temozolomide (TMZ, Sigma) was dissolved in PBS and diluted in Neurobasal complete media. ZIKV was added at an MOI of 5 by itself or 4 h before TMZ (250 μM) addition. Cell supernatants were stored at −80° C. for subsequent analysis.

recurrent GBM = settings: cited from earlier work

For `Cn1nnc2c(C(N)=O)ncn2c1=O` [TMZ, Temozolomide], the “effective TMZ concentration” value (GSC lines (387 and 3565)) was 250 µM.
For “nivolumab: immune checkpoint inhibitor tested in CheckMate 143”, the safety in patients (recurrent GBM; in vivo) is listed as “safe” and the overall response rate (recurrent GBM; recurrent GBM) is listed as “lower than the current standard, bevacizumab”.
